# From ChEMBL document CHEMBL1921759, “Antiprotozoal activity of proton-pump inhibitors” (Bioorg Med Chem Lett, 2011)
# Tests used:
# Type in all cases: functional, organism-based
# Giardia intestinalis [1] = assay: Antiprotozoan activity against Giardia intestinalis; details: Giardia duodenalis
# Trichomonas vaginalis [2] = assay: Antiprotozoan activity against Trichomonas vaginalis
# Trichomonas vaginalis [3] = assay: Antiprotozoan activity against Trichomonas vaginalis GT3 trophozoites compound treated for 48 hrs measured after 48 hrs washout period; details: GT3, 48 h
# Entamoeba histolytica = assay: Antiprotozoan activity against Entamoeba histolytica HM1-IMSS trophozoites compound treated for 48 hrs measured after 48 hrs washout period
# Giardia intestinalis [4] = assay: Antiprotozoan activity against Giardia intestinalis IMSS:0989:1 trophozoites compound treated for 48 hrs measured after 48 hrs washout period; details: Giardia duodenalis, IMSS:0989:1, 48 h
Structure (SMILES),IC50 (Giardia intestinalis [1]) [nM],IC50 (Trichomonas vaginalis [2]) [nM],IC50 (Trichomonas vaginalis [3]) [nM],IC50 (Entamoeba histolytica) [nM],IC50 (Giardia intestinalis [4]) [nM]
CN(C)CCSc1nc2c(Cl)cc(Cl)cc2[nH]1,20,72,,,
Cc1c(OCC(F)(F)F)ccnc1C[S+]([O-])c1nc2ccccc2[nH]1 (centres undefined) [LANSOPRAZOLE],,,122,347,73.1
COc1ccc2[nH]c([S+]([O-])Cc3ncc(C)c(OC)c3C)nc2c1 (centres undefined) [OMEPRAZOLE],,,122,492,95.5
COc1ccnc(C[S+]([O-])c2nc3cc(OC(F)F)ccc3[nH]2)c1OC (centres undefined) [PANTOPRAZOLE],,,75.6,2.6,15.7
COCCCOc1ccnc(C[S+]([O-])c2nc3ccccc3[nH]2)c1C (centres undefined) [RABEPRAZOLE],,,106,23.7,18.1
